From US20230265151A1, “GIP/GLP1 CO-AGONIST COMPOUNDS” (priority 2020, published 2023) come the findings set out here.

Each structure is given as a SMILES string. Read-outs that look alike come from different tables or passages of the source.

What all share (format): cell-based
One test concerns the target T1, hGIPR (Homo sapiens, UniProt P48546).
T1 construct: expressed in transfected cells
T1 sequence (P48546 22-466): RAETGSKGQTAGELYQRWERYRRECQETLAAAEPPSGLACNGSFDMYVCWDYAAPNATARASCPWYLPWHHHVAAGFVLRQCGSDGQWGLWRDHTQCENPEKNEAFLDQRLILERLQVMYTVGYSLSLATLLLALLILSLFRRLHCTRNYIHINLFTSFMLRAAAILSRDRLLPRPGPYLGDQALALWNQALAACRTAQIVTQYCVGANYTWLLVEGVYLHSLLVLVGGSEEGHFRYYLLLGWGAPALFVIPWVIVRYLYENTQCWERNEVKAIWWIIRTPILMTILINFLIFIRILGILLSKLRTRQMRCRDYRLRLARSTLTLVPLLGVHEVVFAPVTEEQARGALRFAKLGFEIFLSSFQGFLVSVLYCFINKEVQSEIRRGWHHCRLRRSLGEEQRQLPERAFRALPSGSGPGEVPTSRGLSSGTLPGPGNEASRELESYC
In words: Functional cAMP formation (HTRF) in HEK-293 clonal cells expressing hGIPR, 0.1% bovine casein, without or with 1.0% human serum albumin. Particulars: for EC50: hGIPR EC50, nM (SEM, n), cAMP, 0.1% bovine casein (no human serum albumin), geometric mean. Put shortly:
(§1)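 Cells were stimulated with peptide for 30 min at 37° C, then lysed in buffer carrying cAMP-d2 and anti-cAMP Eu3+-cryptate for a competitive HTRF read after at least 60 min at room temperature. The 665/620 nm ratio was converted to nM cAMP against a standard curve.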
Background: Cyclic AMP is a second messenger, typically raised through Gs and lowered through Gi signalling.

The next test addresses T2, hGCGR (Homo sapiens, UniProt P47871).
T2 construct: expressed in transfected cells
In words: Functional cAMP formation (HTRF) in HEK-293 clonal cells expressing hGCGR, 0.1% bovine casein, without or with 1.0% human serum albumin. The settings on record: hGCGR EC50, nM (SEM, n), geometric mean. Put shortly: as §1

The target of another test is hGLP-1R (Homo sapiens, UniProt P43220). Briefly: Functional cAMP formation (HTRF) in HEK-293 clonal cells expressing hGLP-1R, 0.1% bovine casein, without or with 1.0% human serum albumin. Further details: expressed in transfected cells. The settings on record: for EC50: hGLP-1R EC50, nM (SEM, n), cAMP, 0.1% bovine casein (no human serum albumin), geometric mean. Put shortly: as §1
Chain of hGLP-1R (P43220 24-463): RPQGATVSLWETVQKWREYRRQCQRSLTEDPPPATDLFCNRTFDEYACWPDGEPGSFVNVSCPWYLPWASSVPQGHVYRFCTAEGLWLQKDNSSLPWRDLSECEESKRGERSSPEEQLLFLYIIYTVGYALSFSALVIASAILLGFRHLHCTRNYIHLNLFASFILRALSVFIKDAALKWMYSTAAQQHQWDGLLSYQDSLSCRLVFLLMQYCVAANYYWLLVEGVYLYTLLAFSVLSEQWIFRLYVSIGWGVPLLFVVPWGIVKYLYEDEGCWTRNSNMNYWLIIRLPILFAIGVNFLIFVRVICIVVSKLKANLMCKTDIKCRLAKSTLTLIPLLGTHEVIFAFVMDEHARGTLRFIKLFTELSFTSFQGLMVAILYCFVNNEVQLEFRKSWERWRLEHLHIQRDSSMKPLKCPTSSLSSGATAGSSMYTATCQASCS

T2 sequence (P47871 26-477): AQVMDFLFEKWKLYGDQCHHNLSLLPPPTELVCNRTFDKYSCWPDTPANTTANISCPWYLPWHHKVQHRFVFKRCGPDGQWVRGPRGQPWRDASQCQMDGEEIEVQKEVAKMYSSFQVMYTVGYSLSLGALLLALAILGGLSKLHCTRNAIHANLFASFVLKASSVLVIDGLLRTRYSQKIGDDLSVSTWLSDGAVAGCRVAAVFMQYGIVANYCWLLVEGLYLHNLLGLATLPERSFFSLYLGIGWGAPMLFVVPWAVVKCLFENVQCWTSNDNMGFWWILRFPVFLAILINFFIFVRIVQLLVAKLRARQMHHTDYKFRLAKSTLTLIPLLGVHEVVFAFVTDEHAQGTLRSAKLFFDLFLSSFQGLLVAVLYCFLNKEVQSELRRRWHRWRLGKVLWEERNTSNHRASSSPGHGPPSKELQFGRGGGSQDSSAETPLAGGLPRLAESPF

In general, Emax refers to the greatest response seen or fitted, relative to the assay's reference. The term EC50 denotes the concentration needed to bring the measured effect to its halfway point. Higher therefore signals a less potent agent. With `CC[C@H](C)[C@H](NC(=O)[C@H](CCCN)NC(=O)[C@H](CC(=O)O)NC(=O)[C@H](CC(C)C)NC(=O)[C@](C)(CC(C)C)NC(=O)[C@@H](NC(=O)C(C)(C)NC(=O)[C@@H](NC(=O)[C@H](CC(=O)O)NC(=O)[C@H](CO)NC(=O)[C@@H](NC(=O)[C@](C)(Cc1ccccc1F)NC(=O)[C@@H](NC(=O)CNC(=O)[C@H](CCC(=O)O)NC(=O)C(C)(C)NC(=O)[C@@H](N)Cc1ccc(O)cc1)[C@@H](C)O)[C@@H](C)O)C(C)C)[C@@H](C)CC)C(=O)N[C@@H](C)C(=O)N[C@@H](CCC(N)=O)C(=O)NC(C)(C)C(=O)N[C@@H](CCC(=O)O)C(=O)N[C@@H](Cc1ccccc1)C(=O)N[C@H](C(=O)N[C@@H](CCCCNC(=O)COCCOCCNC(=O)COCCOCCNC(=O)CC[C@H](NC(=O)CCCCCCCCCOc1ccc(C(=O)O)cc1)C(=O)O)C(=O)N[C@@](C)(Cc1ccc(O)cc1)C(=O)N[C@@H](CC(C)C)C(=O)N[C@H](C(=O)N[C@@H](CCCCNC(=O)COCCOCCNC(=O)COCCOCCNC(=O)CC[C@H](NC(=O)CCCCCCCCCOc1ccc(C(=O)O)cc1)C(=O)O)C(=O)NCC(=O)NCC(=O)N1CCC[C@H]1C(=O)N[C@@H](CO)C(=O)N[C@@H](CO)C(=O)NCC(=O)N[C@@H](C)C(=O)N1CCC[C@H]1C(=O)N1CCC[C@H]1C(=O)N1CCC[C@H]1C(=O)N[C@@H](CO)C(N)=O)[C@@H](C)CC)[C@@H](C)CC` [Example 308], the Emax at hGIPR (HEK293, read-out: hGIPR Emax, % ± SEM, cAMP, 37° C., 0.1% bovine casein, percent of maximal response to GIP(1-42)NH2, arithmetic mean) was found to be 117%; on hGLP-1R (HEK293, read-out: hGLP-1R Emax, % ± SEM, 0.1% bovine casein and 1.0% human serum albumin, 37° C., percent of maximal response to GLP-1(7-36)NH2), 92.2%; at hGLP-1R (HEK293, read-out: hGLP-1R Emax, % ± SEM, cAMP, 37° C., 0.1% bovine casein, percent of maximal response to GLP-1(7-36)NH2, arithmetic mean), 98%. Moreover, the EC50 at hGIPR (37° C.) is 0.0551 nM; on hGCGR (0.1% bovine casein and 1.0% human serum albumin, 37° C.) it was greater than 9950 nM; at hGCGR (cAMP, 37° C., 0.1% bovine casein (no human serum albumin)), greater than 9950 nM; on hGLP-1R (37° C.), 0.689 nM.
With `CC[C@H](C)[C@H](NC(=O)[C@H](CC(C)C)NC(=O)[C@](C)(Cc1ccc(O)cc1)NC(=O)[C@H](CCCCNC(=O)COCCOCCNC(=O)COCCOCCNC(=O)CC[C@H](NC(=O)CCCCCCCCCCCCC(=O)O)C(=O)O)NC(=O)[C@@H](NC(=O)[C@](C)(Cc1ccccc1)NC(=O)[C@H](CCC(=O)O)NC(=O)C(C)(C)NC(=O)[C@H](CCC(N)=O)NC(=O)[C@H](C)NC(=O)[C@H](CCCCNC(=O)COCCOCCNC(=O)COCCOCCNC(=O)CC[C@H](NC(=O)CCCCCCCCCCCCC(=O)O)C(=O)O)NC(=O)[C@H](CCCN)NC(=O)[C@H](CC(=O)O)NC(=O)[C@H](CC(C)C)NC(=O)[C@](C)(CC(C)C)NC(=O)[C@@H](NC(=O)C(C)(C)NC(=O)[C@@H](NC(=O)[C@H](CC(=O)O)NC(=O)[C@H](CO)NC(=O)[C@@H](NC(=O)[C@](C)(Cc1ccccc1F)NC(=O)[C@@H](NC(=O)CNC(=O)[C@H](CCC(=O)O)NC(=O)C(C)(C)NC(=O)[C@@H](N)Cc1ccc(O)cc1)[C@@H](C)O)[C@@H](C)O)C(C)C)[C@@H](C)CC)[C@@H](C)CC)C(=O)N[C@@H](CCC(=O)O)C(=O)NCC(=O)NCC(=O)N1CCC[C@H]1C(=O)N[C@@H](CO)C(=O)N[C@@H](CO)C(=O)NCC(=O)N[C@@H](C)C(=O)N1CCC[C@H]1C(=O)N1CCC[C@H]1C(=O)N1CCC[C@H]1C(=O)N[C@@H](CO)C(N)=O` [Example 119], the EC50 at hGIPR (incubated at 37° C.) is 0.0863 nM; at hGCGR (cAMP, incubated at 37° C., 0.1% bovine casein (no human serum albumin)), greater than 9950 nM; at hGLP-1R (incubated at 37° C.), 0.351 nM. In addition, on hGLP-1R (HEK293, read-out: hGLP-1R Emax, % ± SEM, percent of maximal response to GLP-1(7-36)NH2, 37° C., 0.1% bovine casein, arithmetic mean), the maximal effect (Emax) was 99.4%.
